In patent US9018226B2, “Antipsychotic agents and standardized antipsychotic fractions from Rauwolfia tetraphylla and process of their isolation” (Council of Scientific & Industrial Research, priority 2009, dated 2015):

Legend:
[1] = tested on: amphetamine induced hyperactive mouse model; test: amphetamine induced hyperactivity mouse model; assay type: in vivo, Swiss mice; conditions: for in-vivo antipsychotic activity, in words: mouse
Experimental: (§1) The above fractions were evaluated for their antipsychotic activity. In order to assess the antipsychotic potential of MeOH extract, its various fractions, alkaloids isolated and their derivatives from Rauwolfia tetraphylla leaf, amphetamine induced hyper activity mouse model was used following the method of Szewczak et al (1987). Adult Swiss mice of either sex (25±2 g body weight) obtained from the Indian Institute of Toxicology Research (IITR), Lucknow, India animal-breeding colony were used throughout the experiment. The animals were housed in plastic polypropylene cages under standard animal house conditions with a 12 hours light/dark cycle and temperature of 25±2° C. The animals had adlibitum access to drinking water and pellet diet (Hindustan Lever Laboratory Animal Feed, Kolkata, India). The Animal Care and Ethics Committee of IITR approved all experimental protocols applied to animals.
Mice were injected with amphetamine (5 mg/kg, i.p.) 60 minutes after oral treatment with respective extract in each group.
as §1, with “In” for “The above fractions were evaluated for their antipsychotic activity. In”
The mice randomly grouped in batches of seven animals per group. The basal motor activity (distance traveled) of each mouse was recorded individually using automated activity monitor (TSE, Germany). After basal activity recording, a group of seven animals were challenged with amphetamine [[…], intra peritoneal (i.p) dissolved in normal saline]. After 30 min. amphetamine injection, motor activity was recorded for individual animal for 5 min.
The difference in motor activity as indicated by distance traveled in animals with amphetamine alone treated and animals with samples plus amphetamine challenge was recorded as inhibition in hyperactivity caused by amphetamine and the data presented as percent inhibition in amphetamine induced hyperactivity.

alpha-2 adrenoceptors = conditions: in vivo; cited from earlier work
alpha-2 adrenoceptor = conditions: rats and mice; cited from earlier work

CC(N)Cc1ccccc1 (stereo not shown) [Amphetamine]
Distance traveled ([1]; amphetamine alone, 5 mg/Kg i.p.): 6064 cm

COC(=O)[C@H]1[C@H]2C[C@H]3c4[nH]c5ccccc5c4CCN3C[C@H]2CC[C@@H]1O [Compound K001, 17α-hydroxy-20α-yohimban-16β-carboxylic acid methyl ester]
inhibition in amphetamine induced hyperactivity mice model ([1]; 6.25 mg/Kg): > 60% | in-vivo antipsychotic activity, in words [1]: significant in-vivo antipsychotic activity at lower doses | in-vivo antipsychotic activity, in words ([1]; listed as α-yohimbine (K001)): more active even at lower doses | alpha-2 adrenoceptor selectivity relative to RS 21361 (alpha-2 adrenoceptors): ~2 times | alpha-2 adrenoceptor selectivity relative to RX 781094 (alpha-2 adrenoceptors): about 25 times

c1ccc2c(c1)OCC(C1=NCCN1)O2 (stereo not shown) [RX 781094]
effectiveness relative to α-yohimbine in antagonizing clonidine hypotension and sedation (alpha-2 adrenoceptor): approximately 3 times

COC(=O)[C@H]1[C@H]2C[C@@H]3c4[nH]c5cc(OC)ccc5c4CCN3C[C@H]2C[C@@H](OC(=O)c2cc(OC)c(OC)c(OC)c2)[C@@H]1OC [Reserpine]
Anti-psychotic activity (% inhibition in amphetamine induced hyperactivity) ([1]; dose 5 mg/Kg): 34% | Distance traveled ([1]; dose 5 mg/Kg, amphetamine 5 mg/kg i.p. 60 minutes later): 4002 cm | Distance traveled ([1]; dose […], amphetamine 5 mg/kg i.p. 60 minutes later): 5093 cm
